According to ChEMBL document CHEMBL3232849, “Structure-activity relationship studies toward the discovery of selective apelin receptor agonists” (J Med Chem, 2014):
Calls of active or inactive are those of the source. The rule behind the calls is not given here.

What was measured:
[1] = molecular target: T1, Apelin receptor (Rattus norvegicus) (UniProt Q9JHG3); assay: Agonist activity at rat apelin receptor expressed in CHO cell membranes coexpressing EGFP assessed as receptor internalization at 100 uM after 20 mins by confocal microscopic analysis; format: cell-based
T1 sequence (whole entry): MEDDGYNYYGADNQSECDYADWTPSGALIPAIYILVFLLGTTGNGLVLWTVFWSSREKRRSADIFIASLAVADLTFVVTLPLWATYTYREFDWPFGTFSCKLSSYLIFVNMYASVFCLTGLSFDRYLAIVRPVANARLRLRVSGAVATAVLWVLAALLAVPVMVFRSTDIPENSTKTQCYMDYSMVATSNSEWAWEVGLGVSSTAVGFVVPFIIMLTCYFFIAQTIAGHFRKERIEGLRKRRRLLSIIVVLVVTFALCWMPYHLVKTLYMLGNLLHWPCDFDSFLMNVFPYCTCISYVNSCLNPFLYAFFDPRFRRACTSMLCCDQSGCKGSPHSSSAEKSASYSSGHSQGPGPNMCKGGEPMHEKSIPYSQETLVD

Apelin receptor [2] = molecular target: T2, Apelin receptor (Homo sapiens, UniProt P35414); assay: Displacement of [125I]-pE13F from human apelin receptor expressed in CHO cell membranes after 1 hr by gamma counting analysis
T2 sequence (P35414 whole entry): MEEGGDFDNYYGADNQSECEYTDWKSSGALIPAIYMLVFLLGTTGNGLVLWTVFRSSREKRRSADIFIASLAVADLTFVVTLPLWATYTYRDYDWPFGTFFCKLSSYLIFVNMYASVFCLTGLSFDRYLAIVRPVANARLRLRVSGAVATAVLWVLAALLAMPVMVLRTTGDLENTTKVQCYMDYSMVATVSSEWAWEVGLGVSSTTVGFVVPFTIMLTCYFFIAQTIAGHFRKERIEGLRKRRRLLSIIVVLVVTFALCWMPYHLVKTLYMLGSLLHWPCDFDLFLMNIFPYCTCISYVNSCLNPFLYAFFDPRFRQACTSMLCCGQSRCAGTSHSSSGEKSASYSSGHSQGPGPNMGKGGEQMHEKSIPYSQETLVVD

[3] = molecular target: T1, Apelin receptor (Rattus norvegicus); assay: (§1) Agonist activity at rat apelin receptor expressed in CHO cell membranes coexpressing EGFP assessed as inhibition of forskolin-induced cAMP production after 30 mins by fluorescence analysis; format: functional, cell-based
[4] = molecular target: T1, Apelin receptor (Rattus norvegicus); assay: Agonist activity at rat apelin receptor expressed in CHO cell membranes coexpressing EGFP assessed as inhibition of forskolin-induced cAMP production after 30 mins by fluorescence analysis relative to control; format: functional, cell-based
[5] = Half life in mouse plasma at 5 uM at 37 degC by LC-MS analysis; format: ADME, cell-free
Apelin receptor [6] = molecular target: T3, Apelin receptor (Rattus norvegicus, UniProt Q9JHG3); assay: as §1; format: functional, cell-based
T3 sequence (Q9JHG3 whole entry): T1 sequence (whole entry)

[7] = molecular target: T4, Type-1 angiotensin II receptor (Homo sapiens, UniProt P30556); assay: Displacement of [125I]-angiotensin 2 from human angiotensin 2 type-1 receptor expressed in CHO cell membranes after 1 hr by gamma counting analysis
T4 sequence (P30556 whole entry): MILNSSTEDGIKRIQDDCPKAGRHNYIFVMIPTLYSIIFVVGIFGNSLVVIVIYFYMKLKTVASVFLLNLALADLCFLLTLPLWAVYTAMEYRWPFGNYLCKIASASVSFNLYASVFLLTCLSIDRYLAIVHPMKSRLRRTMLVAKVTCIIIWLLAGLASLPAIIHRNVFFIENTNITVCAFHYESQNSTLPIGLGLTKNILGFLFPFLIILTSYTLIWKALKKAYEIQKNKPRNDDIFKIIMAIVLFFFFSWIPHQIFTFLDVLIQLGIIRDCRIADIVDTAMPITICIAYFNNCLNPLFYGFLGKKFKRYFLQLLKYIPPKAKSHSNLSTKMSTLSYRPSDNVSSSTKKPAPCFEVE

[8] = molecular target: T1, Apelin receptor (Rattus norvegicus); assay: Agonist activity at rat apelin receptor expressed in CHO cell membranes coexpressing EGFP assessed as receptor internalization at 100 nM after 20 mins by confocal microscopic analysis; format: cell-based
[9] = Dissociation constant, pKa of the compound in water at 2 mM by potentiometric titration analysis; format: physicochemical

SMILES	Activity [1]	Ki (Apelin receptor [2])	other results
CCN(CC)c1ccc2c(-c3ccc(S(=O)(=O)NCCCC[C@H](NC(=O)Cc4csc(=N)n4C)C(=O)N[C@@H](Cc4cn(Cc5ccccc5)c[n+]4C)C(=O)NC4CCN(Cc5ccccc5)CC4)cc3S(=O)(=O)[O-])c3ccc(=[N+](CC)CC)cc-3oc2c1	Active	0.27 µM	–
CC(=O)NCCCC[C@H](NC(=O)Cc1csc(=N)n1C)C(=O)N[C@@H](Cc1cn(Cc2ccccc2)c[n+]1C)C(=O)NC1CCN(C)CC1	–	> 100 µM	–
CCN(CC)c1ccc2c(-c3ccc(S(=O)(=O)NCCCCCCCCCCCCNC(=O)NCCCC[C@H](NC(=O)Cc4csc(=N)n4C)C(=O)N[C@@H](Cc4cn(Cc5ccccc5)cn4)C(=O)NC4CCN(C)CC4)cc3S(=O)(=O)[O-])c3ccc(=[N+](CC)CC)cc-3oc2c1	–	1.5 µM	–
CCN(CC)c1ccc2c(-c3ccc(S(=O)(=O)NCCCC[C@H](NC(C)=O)C(=O)N[C@@H](Cc4cn(Cc5ccccc5)c[n+]4C)C(=O)NC4CCN(C)CC4)cc3S(=O)(=O)O)c3ccc(=[N+](CC)CC)cc-3oc2c1	–	1.2 µM	–
CCN(CC)c1ccc2c(-c3ccc(S(=O)(=O)NCCCC[C@H](NC(=O)Cc4csc(=N)n4C)C(=O)N[C@@H](Cc4cn(Cc5ccccc5)c[n+]4C)C(=O)NC4CCOCC4)cc3S(=O)(=O)[O-])c3ccc(=[N+](CC)CC)cc-3oc2c1	inactive	0.98 µM	–
CCN(CC)c1ccc2c(-c3ccc(S(=O)(=O)NCCCC[C@H](NC(=O)Cc4csc(=N)n4C)C(=O)N[C@@H](Cc4cn(Cc5ccccc5)c[n+]4C)C(=O)NCC4CCN(C)CC4)cc3S(=O)(=O)[O-])c3ccc(=[N+](CC)CC)cc-3oc2c1	Active	0.18 µM	–
CCN(CC)c1ccc2c(-c3ccc(S(=O)(=O)NCCCCCCCCCCCCNC(=O)NCCCC[C@H](NC(=O)Cc4csc(=N)n4C)C(=O)N[C@@H](Cc4cn(Cc5ccccc5)c[n+]4C)C(=O)NC4CCN(C)CC4)cc3S(=O)(=O)[O-])c3ccc(=[N+](CC)CC)cc-3oc2c1	Active	–	inhibition [3]: Dose-dependent effect; Imax [4]: 100%
CCN(CC)c1ccc2c(-c3ccc(S(=O)(=O)NCCCC[C@H](NC(=O)Cc4csc(=N)n4C)C(=O)N[C@@H](Cc4cn(Cc5ccccc5)c[n+]4C)C(=O)N[C@@H](C)C(N)=O)cc3S(=O)(=O)O)c3ccc(=[N+](CC)CC)cc-3oc2c1	–	0.97 µM	–
CCN(CC)c1ccc2c(-c3ccc(S(=O)(=O)NCCCCCCCCCCCCNC(=O)NCCCC[C@H](NC(=O)Cc4csc(=N)n4C)C(=O)N[C@@H](Cc4cn(Cc5ccccc5)c[n+]4C)C(=O)NC4CCN(C)CC4)cc3S(=O)(=O)O)c3ccc(=[N+](CC)CC)cc-3oc2c1 [listing 1 of 2 here]	–	0.69 µM	half-life at 5 µM [5]: > 10 h; IC50 (Apelin receptor [6]): 4.3 µM; Ki [7]: 2.23 µM
CCN(CC)c1ccc2c(-c3ccc(S(=O)(=O)NCCCCCCCCCCCCNC(=O)NCCCC[C@H](NC(=O)Cc4csc(=N)n4C)C(=O)N[C@@H](Cc4cn(Cc5ccccc5)c[n+]4C)C(=O)NC4CCN(C)CC4)cc3S(=O)(=O)O)c3ccc(=[N+](CC)CC)cc-3oc2c1 [listing 2 of 2 here]	–	0.43 µM	–
CCN(CC)c1ccc2c(-c3ccc(S(=O)(=O)NCCCC[C@H](NC(=O)Cc4csc(=N)n4C)C(=O)N[C@@H](Cc4cn(Cc5ccccc5)c[n+]4C)C(=O)NC4CCN(C)CC4)cc3S(=O)(=O)[O-])c3ccc(=[N+](CC)CC)cc-3oc2c1.O=C(O)C(F)(F)F.O=C(O)C(F)(F)F.O=C([O-])C(F)(F)F	Active	0.4 µM	half-life at 5 µM [5]: > 10 h; IC50 (Apelin receptor [6]): 3 µM; inhibition [3]: Dose-dependent effect; Ki [7]: > 1000 µM; Imax [4]: 77%
CCN(CC)c1ccc(C(=C2C=CC(=[N+](CC)CC)C=C2)c2ccc(S(=O)(=O)NCCCC[C@H](NC(=O)Cc3csc(=N)n3C)C(=O)N[C@@H](Cc3cn(Cc4ccccc4)c[n+]3C)C(=O)NC3CCN(C)CC3)cc2S(=O)(=O)[O-])cc1.O=C(O)C(F)(F)F.O=C(O)C(F)(F)F.O=C([O-])C(F)(F)F	inactive	0.089 µM	half-life at 5 µM [5]: > 10 h; IC50 (Apelin receptor [6]): 1.7 µM; inhibition [3]: Dose-dependent effect; Ki [7]: 98 µM; Imax [4]: 69%
CCN(CC)c1ccc2c(-c3ccc(S(=O)(=O)NCCCCCCNC(=O)NCCCC[C@H](NC(=O)Cc4csc(=N)n4C)C(=O)N[C@@H](Cc4cn(Cc5ccccc5)c[n+]4C)C(=O)NC4CCN(C)CC4)cc3S(=O)(=O)[O-])c3ccc(=[N+](CC)CC)cc-3oc2c1	Active	0.31 µM	–
CSCC[C@H](NC(=O)[C@@H]1CCCN1C(=O)CNC(=O)[C@H](CCCCN)NC(=O)[C@H](Cc1cnc[nH]1)NC(=O)[C@H](CO)NC(=O)[C@H](CC(C)C)NC(=O)[C@H](CCCNC(=N)N)NC(=O)[C@@H]1CCCN1C(=O)[C@H](CCCNC(=N)N)NC(=O)[C@H](CCC(N)=O)NC(=O)[C@H](CCCNC(=N)N)NC(=O)[C@H](CCCNC(=N)N)NC(=O)[C@H](Cc1ccccc1)NC(=O)[C@@H](N)CCCCN)C(=O)N1CCC[C@H]1C(=O)N[C@@H](Cc1ccccc1)C(=O)O	–	–	half-life at 5 µM [5]: 0.0767 h; IC50 (Apelin receptor [6]): 0.0014 µM; inhibition [3]: Dose-dependent effect; Ki [7]: > 100 µM; Imax [4]: 85%; Activity [8]: Active
CCN(CC)c1ccc2c(-c3ccc(S(=O)(=O)NCCCCCCCCCCCCNC(=O)NCCCC[C@H](NC(=O)Cc4csc(=N)[nH]4)C(=O)N[C@@H](Cc4cn(Cc5ccccc5)cn4)C(=O)NC4CCN(C)CC4)cc3S(=O)(=O)[O-])c3ccc(=[N+](CC)CC)cc-3oc2c1	–	9 µM	–
CCN(CC)c1ccc2c(-c3ccc(S(=O)(=O)NCCCCCCCCCCCCNC(=O)NCCCC[C@H](NC(=O)Cc4csc(=N)n4C)C(=O)N[C@@H](Cc4cn(Cc5ccccc5)cn4)C(=O)NC4CC[N+](C)(C)CC4)cc3S(=O)(=O)O)c3ccc(=[N+](CC)CC)cc-3oc2c1	–	3 µM	–
COC(=O)Cc1csc(=N)n1C	–	–	pKa at 2000 µM [9]: 9.77
CCN(CC)c1ccc2c(-c3ccc(S(=O)(=O)NCCCC[C@H](NC(=O)Cc4csc(=N)n4C)C(=O)N[C@@H](C)C(=O)NC4CCN(C)CC4)cc3S(=O)(=O)[O-])c3ccc(=[N+](CC)CC)cc-3oc2c1	inactive	0.45 µM	–
CCN(CC)c1ccc2c(-c3ccc(S(=O)(=O)NCCCCCCCCCCCCNC(=O)NCCCC[C@H](NC(=O)Cc4csc(=N)n4C)C(=O)N[C@@H](Cc4cn(Cc5ccccc5)c[n+]4C)C(=O)NC4CC[N+](C)(C)CC4)cc3S(=O)(=O)O)c3ccc(=[N+](CC)CC)cc-3oc2c1	–	1.4 µM	–
CCN(CC)c1ccc2c(-c3ccc(S(=O)(=O)NCCCC[C@H](NC(=O)Cc4csc(=N)n4C)C(=O)N[C@@H](Cc4cn(Cc5ccccc5)cn4)C(=O)NC4CCN(C)CC4)cc3S(=O)(=O)[O-])c3ccc(=[N+](CC)CC)cc-3oc2c1	Active	0.96 µM	–
CCN(CC)c1ccc2c(-c3ccc(S(=O)(=O)NCCCCNCCCC[C@H](NC(=O)Cc4csc(=N)n4C)C(=O)N[C@@H](Cc4cn(Cc5ccccc5)c[n+]4C)C(=O)NC4CCN(C)CC4)cc3S(=O)(=O)O)c3ccc(=[N+](CC)CC)cc-3oc2c1	–	> 100 µM	–
CCN(CC)c1ccc2c(-c3ccc(S(=O)(=O)NCCCC[C@H](NC(=O)Cc4csc(=N)[nH]4)C(=O)N[C@@H](Cc4cn(Cc5ccccc5)c[n+]4C)C(=O)NC4CCN(C)CC4)cc3S(=O)(=O)[O-])c3ccc(=[N+](CC)CC)cc-3oc2c1	inactive	0.85 µM	–
COC(=O)Cc1csc(N)n1	–	–	pKa at 2000 µM [9]: 4.83
